From ChEMBL document CHEMBL5649166, “RIP3 induces apoptosis independent of pronecrotic kinase activity” (Mol Cell, 2014)

Columns and labels:
[1] = target: Tyrosine-protein kinase Srms (Homo sapiens) (UniProt Q9H3Y6); experiment: Inhibition of human SRMS using poly[Glu:Tyr] (4:1) as substrate at 1 uM in presence of 32P-ATP by Hotspot assay relative to control; values are per cent of control
[2] = target: T1, Ephrin type-A receptor 3 (Homo sapiens) (UniProt P29320); experiment: Inhibition of human EPHA3 using poly[Glu:Tyr] (4:1) as substrate at 1 uM in presence of 32P-ATP by Hotspot assay relative to control; values are per cent of control
T1 sequence (whole entry): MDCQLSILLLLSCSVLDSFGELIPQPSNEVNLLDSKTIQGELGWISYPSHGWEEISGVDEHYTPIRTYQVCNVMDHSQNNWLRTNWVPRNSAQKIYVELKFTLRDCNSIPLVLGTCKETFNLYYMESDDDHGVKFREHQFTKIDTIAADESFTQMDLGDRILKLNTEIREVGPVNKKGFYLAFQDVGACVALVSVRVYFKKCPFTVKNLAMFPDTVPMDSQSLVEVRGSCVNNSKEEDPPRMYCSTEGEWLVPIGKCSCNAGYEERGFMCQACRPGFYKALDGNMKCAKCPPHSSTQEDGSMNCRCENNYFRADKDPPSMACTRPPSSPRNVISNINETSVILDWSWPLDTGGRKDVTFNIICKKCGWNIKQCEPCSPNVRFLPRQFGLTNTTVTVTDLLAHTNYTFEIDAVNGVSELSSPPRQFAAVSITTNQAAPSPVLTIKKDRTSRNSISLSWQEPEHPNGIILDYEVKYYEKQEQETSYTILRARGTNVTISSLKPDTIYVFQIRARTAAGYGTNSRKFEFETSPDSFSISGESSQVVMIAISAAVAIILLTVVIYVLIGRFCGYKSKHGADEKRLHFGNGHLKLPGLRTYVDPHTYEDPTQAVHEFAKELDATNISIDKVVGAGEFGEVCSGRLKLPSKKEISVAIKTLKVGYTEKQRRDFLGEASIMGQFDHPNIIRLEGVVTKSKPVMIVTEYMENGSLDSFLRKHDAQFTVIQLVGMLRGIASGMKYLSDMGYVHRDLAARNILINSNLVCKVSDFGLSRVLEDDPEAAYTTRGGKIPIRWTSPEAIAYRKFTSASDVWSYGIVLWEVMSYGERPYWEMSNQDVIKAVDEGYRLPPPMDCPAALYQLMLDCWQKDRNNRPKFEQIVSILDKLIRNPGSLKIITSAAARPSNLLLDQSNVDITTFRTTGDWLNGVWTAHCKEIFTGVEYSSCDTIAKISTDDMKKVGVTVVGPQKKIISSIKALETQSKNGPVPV

[3] = target: Serine/threonine-protein kinase 33 (Homo sapiens) (UniProt Q9BYT3); experiment: Inhibition of human STK33 using myelin basic protein as substrate at 1 uM in presence of 32P-ATP by Hotspot assay relative to control; values are per cent of control
[4] = target: Tyrosine-protein kinase FRK (Homo sapiens) (UniProt P42685); experiment: Inhibition of human FRK/PTK5 using poly[Glu:Tyr] (4:1) as substrate at 1 uM in presence of 32P-ATP by Hotspot assay relative to control; values are per cent of control
[5] = target: T2, Activin receptor type-1B (Homo sapiens) (UniProt P36896); experiment: Residual activity of human ALK4/ACVR1B using casein as substrate at 1 uM in presence of 32P-ATP by Hotspot assay relative to control
T2 sequence (whole entry): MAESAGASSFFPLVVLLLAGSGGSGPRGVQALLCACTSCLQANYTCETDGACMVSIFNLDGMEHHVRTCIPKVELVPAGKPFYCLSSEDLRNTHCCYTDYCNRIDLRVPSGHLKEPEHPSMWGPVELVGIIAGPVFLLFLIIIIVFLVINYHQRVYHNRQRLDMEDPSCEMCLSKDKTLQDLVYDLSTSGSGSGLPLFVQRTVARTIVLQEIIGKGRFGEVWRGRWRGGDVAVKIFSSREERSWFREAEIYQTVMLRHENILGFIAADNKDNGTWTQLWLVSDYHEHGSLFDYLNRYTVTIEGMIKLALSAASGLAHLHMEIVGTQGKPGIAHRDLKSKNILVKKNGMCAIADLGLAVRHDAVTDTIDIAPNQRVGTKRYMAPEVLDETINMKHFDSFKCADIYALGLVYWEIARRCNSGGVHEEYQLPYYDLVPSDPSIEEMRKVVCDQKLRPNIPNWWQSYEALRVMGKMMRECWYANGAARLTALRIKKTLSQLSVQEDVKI

[6] = target: SRSF protein kinase 3 (Homo sapiens) (UniProt Q9UPE1); experiment: Inhibition of human MSSK1/STK23 using GRSRSRSRSR as substrate at 1 uM in presence of 32P-ATP by Hotspot assay relative to control; values are per cent of control
[7] = target: T3, Rhodopsin kinase GRK7 (Homo sapiens) (UniProt Q8WTQ7); experiment: Inhibition of human GRK7 using casein as substrate at 1 uM in presence of 32P-ATP by Hotspot assay relative to control; values are per cent of control
T3 sequence (whole entry): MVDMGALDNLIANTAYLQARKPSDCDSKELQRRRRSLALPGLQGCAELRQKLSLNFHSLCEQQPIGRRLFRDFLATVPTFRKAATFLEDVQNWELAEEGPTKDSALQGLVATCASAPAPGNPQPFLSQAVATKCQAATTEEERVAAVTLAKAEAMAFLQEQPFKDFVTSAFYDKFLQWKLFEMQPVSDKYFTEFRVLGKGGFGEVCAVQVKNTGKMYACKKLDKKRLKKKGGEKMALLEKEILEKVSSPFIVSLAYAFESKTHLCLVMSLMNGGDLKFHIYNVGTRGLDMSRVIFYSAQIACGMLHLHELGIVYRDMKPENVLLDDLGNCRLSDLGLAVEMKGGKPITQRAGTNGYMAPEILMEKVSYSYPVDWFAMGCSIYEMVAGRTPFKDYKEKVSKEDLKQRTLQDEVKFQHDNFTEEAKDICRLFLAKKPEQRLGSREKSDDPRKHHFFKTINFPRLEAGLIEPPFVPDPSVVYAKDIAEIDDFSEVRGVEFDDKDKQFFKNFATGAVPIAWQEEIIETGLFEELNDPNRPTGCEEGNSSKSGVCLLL

[8] = target: Activated CDC42 kinase 1 (Homo sapiens) (UniProt Q07912); experiment: Inhibition of human ACK1 using EAIYAAPFAKKK as substrate at 1 uM in presence of 32P-ATP by Hotspot assay relative to control; values are per cent of control
Sequence of Activated CDC42 kinase 1 (Homo sapiens) (Q07912 whole entry, looked up): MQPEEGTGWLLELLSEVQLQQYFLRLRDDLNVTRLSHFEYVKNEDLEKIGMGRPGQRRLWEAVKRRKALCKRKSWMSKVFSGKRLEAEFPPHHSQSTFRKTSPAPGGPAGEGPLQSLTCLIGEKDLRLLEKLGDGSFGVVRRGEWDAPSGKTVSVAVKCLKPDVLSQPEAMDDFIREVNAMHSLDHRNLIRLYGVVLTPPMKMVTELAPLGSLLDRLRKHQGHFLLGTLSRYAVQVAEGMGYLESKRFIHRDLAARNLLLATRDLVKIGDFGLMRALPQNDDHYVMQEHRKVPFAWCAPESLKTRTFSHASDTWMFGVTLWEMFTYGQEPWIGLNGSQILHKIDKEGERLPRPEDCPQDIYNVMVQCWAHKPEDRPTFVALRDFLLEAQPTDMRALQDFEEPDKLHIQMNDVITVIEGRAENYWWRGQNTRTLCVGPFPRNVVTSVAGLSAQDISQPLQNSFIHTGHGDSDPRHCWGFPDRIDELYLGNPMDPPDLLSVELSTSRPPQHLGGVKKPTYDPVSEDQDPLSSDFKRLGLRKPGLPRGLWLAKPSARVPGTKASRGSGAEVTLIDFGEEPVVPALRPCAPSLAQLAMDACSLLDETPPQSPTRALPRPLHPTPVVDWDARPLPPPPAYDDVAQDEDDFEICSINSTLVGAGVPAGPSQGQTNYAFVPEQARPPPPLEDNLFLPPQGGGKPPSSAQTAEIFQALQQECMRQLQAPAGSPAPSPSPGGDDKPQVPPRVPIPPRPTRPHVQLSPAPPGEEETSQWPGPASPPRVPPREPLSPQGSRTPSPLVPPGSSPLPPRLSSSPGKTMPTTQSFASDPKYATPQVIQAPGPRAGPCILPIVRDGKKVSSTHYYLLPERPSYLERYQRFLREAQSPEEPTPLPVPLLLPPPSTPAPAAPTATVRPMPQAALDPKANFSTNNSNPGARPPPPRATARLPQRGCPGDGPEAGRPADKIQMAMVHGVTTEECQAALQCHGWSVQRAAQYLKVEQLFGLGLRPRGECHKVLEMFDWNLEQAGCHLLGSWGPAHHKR

Sequence of Tyrosine-protein kinase FRK (Homo sapiens) (P42685 whole entry): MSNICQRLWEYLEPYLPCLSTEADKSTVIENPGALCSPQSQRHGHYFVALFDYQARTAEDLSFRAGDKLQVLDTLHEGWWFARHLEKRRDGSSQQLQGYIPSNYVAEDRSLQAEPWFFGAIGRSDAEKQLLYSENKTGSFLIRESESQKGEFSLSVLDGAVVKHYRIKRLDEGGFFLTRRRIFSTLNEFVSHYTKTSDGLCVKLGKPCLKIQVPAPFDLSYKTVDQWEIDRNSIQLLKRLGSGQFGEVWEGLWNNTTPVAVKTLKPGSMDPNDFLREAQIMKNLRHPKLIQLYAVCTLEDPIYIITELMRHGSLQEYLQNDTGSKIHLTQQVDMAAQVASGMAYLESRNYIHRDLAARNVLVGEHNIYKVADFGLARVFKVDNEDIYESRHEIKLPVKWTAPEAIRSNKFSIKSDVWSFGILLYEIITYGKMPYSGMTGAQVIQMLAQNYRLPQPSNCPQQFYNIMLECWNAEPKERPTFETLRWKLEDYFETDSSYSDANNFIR
Sequence of SRSF protein kinase 3 (Homo sapiens) (Q9UPE1 whole entry): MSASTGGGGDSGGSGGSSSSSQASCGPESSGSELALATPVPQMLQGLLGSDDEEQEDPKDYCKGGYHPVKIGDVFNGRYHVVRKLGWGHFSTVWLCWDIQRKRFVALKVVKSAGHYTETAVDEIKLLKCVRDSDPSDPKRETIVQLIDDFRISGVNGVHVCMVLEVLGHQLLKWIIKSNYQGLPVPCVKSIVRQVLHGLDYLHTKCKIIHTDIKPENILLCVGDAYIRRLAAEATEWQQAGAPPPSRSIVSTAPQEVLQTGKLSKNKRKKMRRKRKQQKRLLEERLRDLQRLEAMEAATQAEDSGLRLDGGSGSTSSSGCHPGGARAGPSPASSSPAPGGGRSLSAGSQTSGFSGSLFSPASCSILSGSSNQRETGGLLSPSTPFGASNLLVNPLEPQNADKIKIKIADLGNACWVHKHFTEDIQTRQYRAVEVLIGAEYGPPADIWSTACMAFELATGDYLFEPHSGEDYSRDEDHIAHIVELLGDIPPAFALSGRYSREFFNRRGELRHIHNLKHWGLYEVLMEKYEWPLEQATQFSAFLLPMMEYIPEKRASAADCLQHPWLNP
Sequence of Serine/threonine-protein kinase 33 (Homo sapiens) (Q9BYT3 whole entry, looked up): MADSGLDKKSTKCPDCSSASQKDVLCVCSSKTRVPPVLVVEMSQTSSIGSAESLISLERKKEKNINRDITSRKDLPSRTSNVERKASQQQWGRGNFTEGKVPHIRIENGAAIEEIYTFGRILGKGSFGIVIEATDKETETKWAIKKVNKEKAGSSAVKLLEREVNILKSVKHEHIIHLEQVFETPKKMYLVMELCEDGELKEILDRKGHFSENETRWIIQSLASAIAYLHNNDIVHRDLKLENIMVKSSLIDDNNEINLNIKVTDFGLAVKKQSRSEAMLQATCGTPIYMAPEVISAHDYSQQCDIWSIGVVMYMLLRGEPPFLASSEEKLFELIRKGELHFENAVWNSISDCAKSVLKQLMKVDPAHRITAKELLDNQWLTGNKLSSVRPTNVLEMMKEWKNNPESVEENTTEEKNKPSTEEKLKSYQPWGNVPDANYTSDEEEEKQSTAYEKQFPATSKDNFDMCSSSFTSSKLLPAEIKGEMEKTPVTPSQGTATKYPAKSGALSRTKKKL
Sequence of Tyrosine-protein kinase Srms (Homo sapiens) (Q9H3Y6 whole entry): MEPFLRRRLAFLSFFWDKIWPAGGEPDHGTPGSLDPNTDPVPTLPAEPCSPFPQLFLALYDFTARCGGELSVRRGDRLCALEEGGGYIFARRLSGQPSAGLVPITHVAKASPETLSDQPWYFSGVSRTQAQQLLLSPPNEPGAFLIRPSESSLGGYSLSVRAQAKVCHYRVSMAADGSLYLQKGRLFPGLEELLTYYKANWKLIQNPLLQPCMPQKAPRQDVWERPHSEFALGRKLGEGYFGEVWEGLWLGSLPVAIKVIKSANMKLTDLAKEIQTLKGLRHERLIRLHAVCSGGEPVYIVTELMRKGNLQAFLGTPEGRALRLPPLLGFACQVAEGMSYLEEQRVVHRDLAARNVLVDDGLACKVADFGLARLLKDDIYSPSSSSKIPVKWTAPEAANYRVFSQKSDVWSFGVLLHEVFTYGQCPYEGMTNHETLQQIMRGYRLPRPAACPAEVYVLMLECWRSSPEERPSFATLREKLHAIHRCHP

SMILES | residual activity [1] [%] | residual activity [2] [%] | residual activity [3] [%] | residual activity [4] [%] | residual activity [5] [%] | residual activity [6] [%] | residual activity [7] [%] | residual activity [8] [%]
CC(C)S(=O)(=O)c1ccc2nccc(Nc3ccc4scnc4c3)c2c1 | 77.1 | 92 | 103 | 33.5 | 100 | 102 | 101 | 47.8
Cc1cc(-c2cnc(N)c3c(-c4ccc5scnc5c4)csc23)n(C)n1 | 78.8 | 80 | 99 | 65.3 | 96.8 | 93.7 | 100 | 5.38
CNC(=O)c1ccc2c(c1)ncn2-c1ccc(CC(=O)OC(C)(C)C)cc1 | 105 | 82.7 | 102 | 90.8 | 93.9 | 101 | 92.4 | 93.4
